Source: patent publication US6524330B1, “Method of ocular treatment” (priority 2000, dated 2003)
Entries after “also recorded” stand apart in the source; their conditions may differ.

Key:
choriocapillaris [1] = experiment: Photodynamic therapy with hypocrellin A in rabbit eyes, red laser (647 nm), funduscopy and angiography; assay type: in vivo, Rabbits (Dutch belted pigmented); details: 647 nm (red laser); dose of 500 μg/kg systemically; any of the power levels or durations tested
Method: (§1) Rabbits (twenty-five Dutch belted pigmented, 2-3 kg body weight), were administered hypocrellin A (Molecular Probes, Eugene, Oreg.) by systemic injection into the ear vein. Animals were anesthetized by intramuscular injection of ketamine hydrochloride (50 mg/kg) and xylazine hydrochloride (5 mg/kg). Pupils were dilated with 2.5% phenylephrine and 0.5% tropicamide.
The hypocrellin preparation was administered as an intravenous bolus into the marginal ear vein. […] However, doses in the range of about […] may also be administered. Control animals received vehicle (liposomes without hypocrellin A in a saline solution) only.
After administration of compound, for example, 10-15 minutes after hypocrellin A administration, PDT was initiated upon application of laser irradiation with a dye laser (Coherent, Palo Alto, Calif.). Prior to light application, a lens with a focal length of 25 cm was placed in front of the laser beam to prevent interference with the slit lamp light path and to enlarge the spot size produced by the 500 μm setting of the laser to 2 mm on the retina. A spot size of 2 mm was used throughout. A plano fundus contact lens was placed on the cornea, with methylcellulose gel as a coupler, to null the refraction of the cornea. Animals were positioned in a stereotactic support attached to the slit lamp to maintain precise alignment. […]

choriocapillaris [2] = experiment: Photodynamic therapy with liposomal hypocrellin A in rabbit eyes, yellow laser (568 nm), fundus observation and fluorescein angiography; assay type: in vivo, Rabbits (Dutch belted pigmented); details: for Fluorescein Angiogram 2 hours post PDT / Fluorescein Angiogram 24 hours post PDT: 568 nm, 500 μg/kg i.v. in liposomes
Method: as §1
Hypocrellin A was incorporated into liposomes composed of phosphatidylcholine (PC), phosphatidylglycerol (PG), cholesterol, or dipalmitoyl phosphatidylcholine (DPPC), dipalmitoyl phosphatidylglycerol (DPPG) (Avanti Polar Lipids, Pelham, Ala.), with or without cholesterol, using methods known to one of skill in this art. In general, large unilamellar vesicles (LUV) were formed using the reverse phase evaporation method of Szoka and Papahadjopoulos (Proc. Natl. Acad. Sci. USA 1978; 75:4194-4198). Lipids (100 mg PC, 25 mg PG, and optionally 15 mg cholesterol) and 1 mg hypocrellin A were dissolved in chloroform. The solution was placed in a round flask under rotary evaporation (Buschi Laboratoriums-teenik AG, Flawil, Schewiz) to make a thin film. The dried material was dissolved in 6 ml chloroform and 12 ml ether.
The aqueous phase consisted of 4 ml HEPES buffered saline ([…] NaCI, 2 mM KCI, 10 mM HEPES buffer, pH 7.4, 300 mOsm). This was added to the chloroform/ether solution, the flask was filled with nitrogen gas and subjected to ultrasound at 40° C. for two minutes to form a homogeneous emulsion, which was transferred to a rotary evaporator. At pressures below about 400 mm Hg, the emulsion began to bubble extensively as the organic phase was drawn off. […] The foaming emulsion was vented whenever it neared the top of the flask. Progressively higher vacuum was used to maintain foaming. As the process continued, the foaming decreased. At a pressure of about 100 mm Hg, foaming ceased and the procedure was completed. The process yielded large, negatively charged, unilamellar liposomes with HEPES buffer encapsulated into the aqueous phase and hypocrellin A incorporated into the bilayers of the liposomes. Before injection, the LUV were filtered through 0.8 μm pores.
The hypocrellin preparation was administered as an intravenous bolus into the marginal ear vein. The dose of hypocrellin administered was 500 μg/kg in a volume of about 2 ml. However, doses in the range of about […] may also be administered. Control animals received vehicle (liposomes without hypocrellin A in a saline solution) only.
After administration of compound, for example, 10-15 minutes after hypocrellin A administration, PDT was initiated upon application of laser irradiation with a dye laser (Coherent, Palo Alto, Calif.). Prior to light application, a lens with a focal length of 25 cm was placed in front of the laser beam to prevent interference with the slit lamp light path and to enlarge the spot size produced by the 500 μm setting of the laser to 2 mm on the retina. A spot size of 2 mm was used throughout. A plano fundus contact lens was placed on the cornea, with methylcellulose gel as a coupler, to null the refraction of the cornea. Animals were positioned in a stereotactic support attached to the slit lamp to maintain precise alignment.
The wavelengths were tested: yellow (568 nm) and red (647 nm). Laser powers were in the range of about 10 mW to about 60 mW. Duration of irradiation was for a minimum of 10 seconds to a maximum of 60 seconds. The photodynamic effect is not only related to the irradiance, but power and duration as well. Fluence (irradiance) is the product of power and duration divided by the spot size, but with a constant spot size, irradiance is a function of power and duration only. Fluence was in the range of 3.2 to 95.5 J/cm^2. […] In one embodiment, the lowest possible power and duration that induce the minimal fluorescein angiographic response is used.
The irradiations were done in the avascular retina, below the optic disc. […]

choriocapillaris [3] = tested on: choriocapillaris
Method: Immediately after the second fluorescein examination, eyes were enucleated and fixed in 2% paraformaldehyde and 3% glutaraldehyde for 24 h. The areas of PDT treatment were surgically excised and specimens were dehydrated in ethanol, embedded in resin, subjected to serial sectioning and staining with 1% toluidine blue for light microscopy.

[4] = cited from earlier work
[5] = power 10 mW, duration 10, 20, 30, 40, 50, 60 sec, irradiance 3.2-19.1 J/cm^2, 2 mm spot
[6] = power 20 mW, duration 10, 20, 30, 40, 50 sec, irradiance 6.4-31.8 J/cm^2
[7] = power 20 mW, duration 60 sec, irradiance 38.2 J/cm^2
[8] = power 30 mW, duration 10, 20, 30 sec, irradiance 9.6-28.6 J/cm^2
[9] = power 30 mW, duration 40, 50, 60 sec, irradiance 38.2-57.3 J/cm^2
[10] = power 40 mW, duration 10 sec, irradiance 12.7 J/cm^2
[11] = power 40 mW, duration 20, 30, 40, 50, 60 sec, irradiance 25.4-76.4 J/cm^2
[12] = power 50 mW, duration 10, 20, 30, 40, 50, 60 sec, irradiance 15.9-95.5 J/cm^2
[13] = power 60 mW, duration 10 sec, irradiance 19.1 J/cm^2
[14] = power 60 mW, duration 20 sec, irradiance 38.2 J/cm^2
[15] = power 60 mW, duration 30 sec, irradiance 57.3 J/cm^2

## hypocrellin A
Choriocapillaris [1]
  funduscopic or angiographic changes: no demonstrable funduscopic or angiographic changes
Choriocapillaris [2]; 568 nm (yellow laser), treated rabbits
  retinal changes in the treated area during or immediately after laser irradiation: no retinal changes
Choriocapillaris [2]; [5]
  Fluorescein Angiogram 2 hours post PDT: no effect; also recorded: No response
  Fluorescein Angiogram 24 hours post PDT: no effect; also recorded: No response
Choriocapillaris [2]; [6]
  Fluorescein Angiogram 2 hours post PDT: no effect; also recorded: No response
  Fluorescein Angiogram 24 hours post PDT: no effect; also recorded: No response
Choriocapillaris [2]; [7]
  Fluorescein Angiogram 2 hours post PDT: No response
  Fluorescein Angiogram 24 hours post PDT: minimal response; also recorded: Minimal H
Choriocapillaris [2]; [8]
  Fluorescein Angiogram 2 hours post PDT: No response
  Fluorescein Angiogram 24 hours post PDT: No response
Choriocapillaris [2]; [9]
  Fluorescein Angiogram 2 hours post PDT: No response
  Fluorescein Angiogram 24 hours post PDT: fluorescence effect was seen and H
Choriocapillaris [2]; [10]
  Fluorescein Angiogram 2 hours post PDT: No response
  Fluorescein Angiogram 24 hours post PDT: No response
Choriocapillaris [2]; [11]
  Fluorescein Angiogram 2 hours post PDT: no effect; also recorded: No response
  Fluorescein Angiogram 24 hours post PDT: fluorescence effect and H
Choriocapillaris [2]; [12]
  Fluorescein Angiogram 2 hours post PDT: No response
  Fluorescein Angiogram 24 hours post PDT: fluorescence effect was observed and H
Choriocapillaris [2]; [13]
  Fluorescein Angiogram 2 hours post PDT: No response
  Fluorescein Angiogram 24 hours post PDT: response visible on the angiogram and fluorescence effect and H
Choriocapillaris [2]; [14]
  Fluorescein Angiogram 2 hours post PDT: fluorescence effect was seen and H
  Fluorescein Angiogram 24 hours post PDT: fluorescence effect was seen and H
Choriocapillaris [2]; [15]
  Fluorescein Angiogram 2 hours post PDT: fluorescence effect was seen and H
  Fluorescein Angiogram 24 hours post PDT: fluorescence effect was seen and H
Choriocapillaris [3]; all eyes that developed angiographic changes
  histologic finding by light microscopy 24 hours after laser irradiation: occlusion of the choriocapillaris
Choriocapillaris [3]; light microscopy 24 hours after laser irradiation
  damage to inner or outer retinal layers: No damage to inner or outer retinal layers
[4]
  toxicity in the absence of light: non-toxic
